{
  "source": "paper PMC3199744",
  "about": "“Preformulation and stability in biological fluids of the retrocyclin RC-101, a potential anti-HIV topical microbicide” (AIDS Research and Therapy, 2011)",
  "key": {"[1]": {"assay": "Thermal degradation of RC-101 solution, HPLC", "type": "physicochemical", "details": "500 μg/mL solution, HPLC-UV 215 nm", "quoted_text": "(§1) For all pre-formulation studies described below, triplicate solutions of RC-101 (500 μg/mL) were prepared in either water or aqueous buffer solution. Thermal degradation studies were conducted at 25, 37, and 65°C for a minimum period of 1 week. The effect of pH on the stability of RC-101 was evaluated over the pH range from 3 to 12 using 10 mM phosphate buffer solutions, at low (50 mmol/kg) and high (500 mmol/kg) ionic strength. Oxidation of RC-101 was evaluated by exposing a solution of RC-101 to hydrogen peroxide (H2O2) at concentrations of 3.0, 0.08, and 0.002% (v/v). The high H2O2 concentration (3.0%) was selected as a forced degradation concentration. […] Protection against oxidation was investigated by the addition of antioxidants commonly used in pharmaceutical products. The antioxidants used in this study were: methionine (95.2 μg/mL or 250 μg/mL), cysteine (95.2 μg/mL), glutathione (90.9 μg/mL), vitamin E TPGS (90.9 μg/mL), ascorbic acid (1.0 mg/mL), sodium ascorbate (1.0 mg/mL), and EDTA (1.0 μg/mL).\n(§2) RC-101 concentration after exposure to preformulation conditions was analyzed by HPLC as previously described [11]. Briefly, the HPLC system (Waters Corporation, Milford, MA) was equipped with an autoinjector model 717, a quaternary pump model 600, and an ultraviolet (UV) detector model 2487 set up at 215 nm. Separation of RC-101 from degradant products was achieved using a Phenomenex Jupiter 5 μC5 300 Å (4.6 × 250 mm) column (Phenomenex, Torrance, CA) protected by a Widepore C5 (4 × 3.0 mm) guard cartridge (Phenomenex). The gradient consisted of mobile phase A (0.1% TFA in water (v/v)), and mobile phase B (0.07% TFA in acetonitrile (v/v)) pumped at a flow rate of 1.0 mL/min. […]\n(§3) HPLC data obtained from the preformulation studies were expressed as the average percentage of the peak area from time 0 ± standard deviation, n = 3. Results were analyzed by one-way analysis of variance (ANOVA) with multiple comparisons of individual time points by using post hoc Bonferroni correction to detect significant differences under different conditions. […]"}, "[2]": {"assay": "Circular dichroism of RC-101 at different pH", "type": "physicochemical", "details": "500 μg/mL in buffer, pH 7 and pH 12 versus pH 3, 0.1 cm cell", "method": "Changes in the secondary structure of the protein were monitored by Circular dichroism (CD) on an AVIV Circular Dichroism spectrophotometer model 202 (AVIV Biomedical, Lakewood, NJ) equipped with a 0.1 cm path length quartz cell. RC-101 stability was also monitored by using a matrix-assisted laser desorption ionization-time of flight (MALDI-TOF) mass spectrometric (MS) on a Voyager DE-PRO mass spectrometer (Applied Biosystems, Foster City, CA). Potential for aggregation was evaluated by UV-spectroscopy using a NanoDrop ND-1000 spectrophotometer (NanoDrop Technologies Inc, Wilmington, DE)."}, "[3]": {"assay": "Stability of RC-101 in 3 M urea", "type": "physicochemical", "quoted_text": "At each time point, the sample was removed from the incubation chamber and centrifuged for 10 min at 10,000 rpm, at 4 ± C to separate the supernatant from cell pellet. Supernatant (100 μL) was added to microcentrifuge filters Ultracel YM-10 Microcon MWCO 10,000 (Millipore Corporation, Bedford, MA), which were pre-washed with Milli Q water to eliminate any trace of propylene glycol from the filters. Samples were centrifuged twice for 15 min at 8,500 rpm, at 4 ± C. The filtrate was collected and frozen at -80 ± C until further analysis. A solution of 3 M urea was added to the cell pellet (1:1 w/w) obtained from the first centrifugation, to lyse the cells. This mixture was vortexed three times for 30 sec, and then centrifuged for 10 min at 10,000 rpm, at 4 ± C. The supernatant obtained from the cell lysate was then added to microcentrifuge filters Ultracel YM-10 Microcon MWCO 10,000 pre-washed with Milli Q water. Samples were centrifuged twice for 15 min at 8,500 rpm, at 4 ± C. The filtrate was collected and frozen at -80 ± C until analysis. […] Samples were thawed and added to PepCleanTM C-18 spin columns (Pierce Biotechnology Inc., Rockford, IL) for desalting, after column conditioning with acetonitrile:water (50:50) and equilibration with 0.1% trifluoroacetic acid. […]"}, "[4]": {"assay": "Stability in fresh normal human vaginal fluid (HVF), detection by LC-MS/MS", "details": "for time RC-101 detected in HVF: LC-MS/MS; for detection of RC-101 by LC-MS/MS: nanoLC-SRM MS, qualitative", "method": "Inclusion criteria included ages between 18 and 45 years and agreeing to be abstinent from sexual activity for 48 hours prior to fluid collection. […] After signing informed consent and confirming eligibility, subjects completed a questionnaire and were then instructed on the use of the Instead Softcup® (Instead Inc., La Jolla, CA). Instead Softcup® is a FDA approved device to hold menstrual fluid during the menstrual period in replacement of a tampon or pad. Subjects inserted the cup and waited for 30 min. After this time period, the physician removed the cup, and placed it into a 50 mL conical centrifuge tube. Vaginal fluid collected from healthy volunteer women was stored at 4°C until used, and it was used within 4 h after collection.\nThe polymeric film solution was prepared as previously described by adding Milli Q water, PVA, and hydroxypropyl methyl cellulose (HPMC). The solution was then heated at 95°C for 20 minutes for complete dissolution of the polymers. […] The plate was placed into a vacuum oven at 30 ± 2°C for 20 ± 4 h. All dried films were removed from the plates and stored at room temperature in PET/Aluminum foil pouches (Amcor Flexibles Healthcare Inc, Mundelein, IL) until further analysis. […] For analytical purposes, films were dissolved in 1 mL of Milli Q water before addition to HVF.\nThe HVF from the Instead Softcup® was removed by centrifugation of the conical tube for 10 min at 5,000 rpm. […] HVF was then removed from the cup and the pH of each HVF sample was measured with Fisher Alkacid pH filter strips (Fisher Scientific). All samples collected on a specific day were pooled to be used for the research studies. If the pH of the individual samples was higher than 5, the sample was not included in the pool but it was stored at -80°C for separate analysis. If the sample contained blood, it was immediately discarded. Samples were prepared as described in Table 1. […] Because of its high viscosity, HVF was measured by weight and not by volume. […] At each time point, the samples were centrifuged at 10,000 rpm for 10 min to separate the supernatant from the epithelial cells as described in the cell processing section. Both parts (supernatant and cells) were stored at -80 ± C until analyzed by LC-MS/MS. To evaluate the influence of freezing the fluid prior to the analysis, the last pool of HVF was divided into two samples: one used fresh (at the time of collection), and the other one stored at -80°C for a 3-month period. […] HVF samples collected with a high pH value indicative of BV were stored at -80°C as previously mentioned. After confirmation of BV on those fluid samples by Gram stain score, the fluid samples (HVF BV^+) were thawed, pooled, and processed as described in Table 1.\nAt each time point, the sample was removed from the incubation chamber and centrifuged for 10 min at 10,000 rpm, at 4 ± C to separate the supernatant from cell pellet. Supernatant (100 μL) was added to microcentrifuge filters Ultracel YM-10 Microcon MWCO 10,000 (Millipore Corporation, Bedford, MA), which were pre-washed with Milli Q water to eliminate any trace of propylene glycol from the filters. Samples were centrifuged twice for 15 min at 8,500 rpm, at 4 ± C. The filtrate was collected and frozen at -80 ± C until further analysis. A solution of 3 M urea was added to the cell pellet (1:1 w/w) obtained from the first centrifugation, to lyse the cells. This mixture was vortexed three times for 30 sec, and then centrifuged for 10 min at 10,000 rpm, at 4 ± C. The supernatant obtained from the cell lysate was then added to microcentrifuge filters Ultracel YM-10 Microcon MWCO 10,000 pre-washed with Milli Q water. Samples were centrifuged twice for 15 min at 8,500 rpm, at 4 ± C. The filtrate was collected and frozen at -80 ± C until analysis."}, "[5]": {"tested_on": "X4 and R5 strains of HIV-1", "details": "cited from earlier work", "text": "Defensins are cysteine-rich, cationic antimicrobial peptides expressed by the leucocytes and epithelial cells of mammals. […] Retrocyclins (θ-Defensin) are the evolutionary descendants of α-defensin genes. Retrocyclins are circular 18-residue, tetracyclic peptides with three cysteine disulfide bonds. RC-101 ([…]), a cationic retrocyclin analog synthesized by solid phase peptide synthesis, has shown activity against X4 and R5 strains of HIV-1 in vitro [4]. The mechanism occur ..."}, "[6]": {"assay": "Oxidation of RC-101 by hydrogen peroxide, HPLC", "details": "500 μg/mL", "quoted_text": "as §1, §2, §3"}},
  "data": [
    {"sequence": "GICRCICGKGICRCICGR (bicyclic or more) [RC-101]", "values": [
      {"measurement": "change in amount of RC-101 on storage (HPLC)", "setting": "[1]; 25 °C, 13 days, % peak area of time 0, n = 3, p > 0.5", "value": "no statistically significance difference"},
      {"measurement": "change in amount of RC-101 on storage (HPLC)", "setting": "[1]; 37 °C, 13 days, % peak area of time 0, n = 3, p > 0.5", "value": "no statistically significance difference"},
      {"measurement": "change in amount of RC-101 on storage (HPLC)", "setting": "[1]; 65 °C, 168 h, compared with 25 °C, n = 3, p < 0.04", "value": "significant decrease"},
      {"measurement": "CD spectrum: peak shift and loss of absorbance compared to pH 3", "setting": "[2]", "value": "change in folding"},
      {"measurement": "time stable in 3 M urea", "setting": "[3]", "value": "at least 24 h"},
      {"measurement": "time RC-101 detected in HVF", "setting": "[4]; another (one) pool of normal HVF, 37°C", "value": "up to 72 h"},
      {"measurement": "detection of RC-101 by LC-MS/MS", "setting": "[4]; fresh pooled normal HVF 100 mg + 100 μL (100 μg/mL), 1:1, 37°C, 0 h", "value": "+"},
      {"measurement": "detection of RC-101 by LC-MS/MS", "setting": "[4]; fresh pooled normal HVF 1:1, 37°C, 2 h", "value": "+"},
      {"measurement": "detection of RC-101 by LC-MS/MS", "setting": "[4]; fresh pooled normal HVF 1:1, 37°C, 6 h", "value": "+"},
      {"measurement": "detection of RC-101 by LC-MS/MS", "setting": "[4]; fresh pooled normal HVF 1:1, 37°C, 12 h", "value": "+"},
      {"measurement": "detection of RC-101 by LC-MS/MS", "setting": "[4]; fresh pooled normal HVF 1:1, 37°C, 24 h", "value": "+"},
      {"measurement": "detection of RC-101 by LC-MS/MS", "setting": "[4]; fresh pooled normal HVF 1:1, 37°C, 48 h", "value": "+"},
      {"measurement": "detection of RC-101 by LC-MS/MS", "setting": "[4]; fresh pooled normal HVF 1:1, 37°C, 72 h, only one pool analyzed", "value": "+"},
      {"measurement": "time RC-101 detected after exposure to HVF", "setting": "[4]; normal HVF, fresh, undiluted, pooled, 1:1 with RC-101 100 μg/mL, 37°C, LC-MS/MS (SRM), not quantitative, overall of 3 pools", "value": "at least 48 h"},
      {"measurement": "time RC-101 detected in HVF", "setting": "[4]; two pools of normal HVF, 37°C", "value": 48, "unit": "h"},
      {"measurement": "activity against X4 and R5 strains of HIV-1 in vitro", "setting": "[5]", "value": "activity"},
      {"measurement": "degradation rate compared with 3.0% H2O2", "setting": "[6]; 0.002% and 0.08% H2O2 (biologically relevant), HPLC", "value": "slower"},
      {"measurement": "loss of RC-101", "setting": "[6]; 3.0% H2O2 (forced degradation), 4 h, HPLC-UV, n = 3", "value": 20, "unit": "%"}
    ]}
  ]
}
